For series [1], the target named is VSV RdRp complex (L and P proteins on N–RNA) (Vesicular stomatitis Indiana virus, UniProt P03523). The class given is biochemical.
Series [2] can be described thus: in vitro. The settings on record: hamster.
The subject of series [3] is HPIV-3.
The test system of series [4] is CHPV. Briefly: microbe, parasite or virus in culture. The settings on record: Chandipura virus, BHK-21, in Mesocricetus auratus, 24 h, read-out: Anti-CHPV Activity IC50 (CHPV-induced metabolic shut-down).
The nature of series [5]: in vitro. The conditions noted are these: human.
Series [6] relates to HPIV-3. Put plainly: microbe, parasite or virus in culture. The settings on record: Human respirovirus 3, HeLa, 72 h, read-out: Anti-HPIV-3 activity IC50.
The test system of series [7] is CHPV.
The test system of series [8] is VSV. Put plainly: microbe, parasite or virus in culture. The conditions noted are these: Vesicular stomatitis virus, HeLa, in Homo sapiens, 65 h, read-out: Anti-VSV Activity IC50 (VSV-induced metabolic shut-down).
Series [9] relates to HeLa cells.
Series [10] relates to VSV. Briefly: microbe, parasite or virus in culture. The settings on record: Vesicular stomatitis virus, BHK-21, in Mesocricetus auratus, 24 h, read-out: Anti-VSV Activity IC50 (VSV-induced metabolic shut-down).
The target of series [11] is CHPV RdRp (L and P proteins) (Chandipura virus, UniProt P13179). Briefly: biochemical. The conditions noted are these: read-out: inhibition of CHPV AC synthesis.
Series [12] concerns VSV-AcGFP. The class given is cell-based, Vesicular stomatitis virus in BHK-21 cells (hamster). The settings on record: 10 µM.
Series [13] deals with VSV.
The next series deals with VSV RNP (Vesicular stomatitis Indiana virus, UniProt P03523). Put plainly: biochemical. The conditions noted are these: for inhibition at 20 µM: read-out: % Inhibition mRNA Synthesis (In vitro Transcription). Type of series: biochemical.
Series [14] deals with RABV.
The next series concerns the target CHPV RNP (Chandipura virus, UniProt P13179). Briefly: biochemical.
The target in the next series is VSV L protein (Vesicular stomatitis Indiana virus, UniProt P03523). Put plainly: biochemical. The class given is biochemical.
Series [15] relates to VSV-AcGFP. Type of series: cell-based, Vesicular stomatitis virus in BHK-21 cells (hamster). The conditions noted are these: 10 µM. The source holds these as a separate data set.
Series [16] deals with VSV L protein (PRNTase domain) (Vesicular stomatitis Indiana virus, UniProt P03523). Type of series: biochemical. The conditions noted are these: at 10 µM.
In series [17] the test system is VSV. Briefly: microbe, parasite or virus in culture. The settings on record: Vesicular stomatitis virus, BHK-21, in Mesocricetus auratus, 24 h, read-out: % Inhibition Nuclear Condensation (Cell Imaging). The class given is cell-based.
The next series deals with BHK-21 cells. The conditions noted are these: at 100 µM.
Series [18] deals with RABV. Briefly: microbe, parasite or virus in culture. The settings on record: Lyssavirus rabies, in mouse/rat NG108-15, 48 h, read-out: Anti-RABV activity IC50 (RABV gene expression, luciferase).
For series [19], the system named is VSV. Type of series: cell-based, Vesicular stomatitis virus in BHK-21 cells (hamster).
The target of the next series is HPIV-3 RNP (Human parainfluenza 3 virus, UniProt P12577). Type of series: biochemical, Human parainfluenza virus 3. The settings on record: at 10 µM.
Series [20] has as its system VSV. Put plainly: microbe, parasite or virus in culture. The class given is cell-based. The settings on record: Vesicular stomatitis virus, BHK-21, in Mesocricetus auratus, 24 h, read-out: % Inhibition Metabolic Shut-down (CCK Assay).
The subject of series [21] is HeLa cells. This is another data set of the same source.

Where two headings read alike, the source gives them in different places.

The text below walks through data of PMC6783830 (Viruses, 2019).

VSV L protein, sequence (P03523 whole entry, looked up): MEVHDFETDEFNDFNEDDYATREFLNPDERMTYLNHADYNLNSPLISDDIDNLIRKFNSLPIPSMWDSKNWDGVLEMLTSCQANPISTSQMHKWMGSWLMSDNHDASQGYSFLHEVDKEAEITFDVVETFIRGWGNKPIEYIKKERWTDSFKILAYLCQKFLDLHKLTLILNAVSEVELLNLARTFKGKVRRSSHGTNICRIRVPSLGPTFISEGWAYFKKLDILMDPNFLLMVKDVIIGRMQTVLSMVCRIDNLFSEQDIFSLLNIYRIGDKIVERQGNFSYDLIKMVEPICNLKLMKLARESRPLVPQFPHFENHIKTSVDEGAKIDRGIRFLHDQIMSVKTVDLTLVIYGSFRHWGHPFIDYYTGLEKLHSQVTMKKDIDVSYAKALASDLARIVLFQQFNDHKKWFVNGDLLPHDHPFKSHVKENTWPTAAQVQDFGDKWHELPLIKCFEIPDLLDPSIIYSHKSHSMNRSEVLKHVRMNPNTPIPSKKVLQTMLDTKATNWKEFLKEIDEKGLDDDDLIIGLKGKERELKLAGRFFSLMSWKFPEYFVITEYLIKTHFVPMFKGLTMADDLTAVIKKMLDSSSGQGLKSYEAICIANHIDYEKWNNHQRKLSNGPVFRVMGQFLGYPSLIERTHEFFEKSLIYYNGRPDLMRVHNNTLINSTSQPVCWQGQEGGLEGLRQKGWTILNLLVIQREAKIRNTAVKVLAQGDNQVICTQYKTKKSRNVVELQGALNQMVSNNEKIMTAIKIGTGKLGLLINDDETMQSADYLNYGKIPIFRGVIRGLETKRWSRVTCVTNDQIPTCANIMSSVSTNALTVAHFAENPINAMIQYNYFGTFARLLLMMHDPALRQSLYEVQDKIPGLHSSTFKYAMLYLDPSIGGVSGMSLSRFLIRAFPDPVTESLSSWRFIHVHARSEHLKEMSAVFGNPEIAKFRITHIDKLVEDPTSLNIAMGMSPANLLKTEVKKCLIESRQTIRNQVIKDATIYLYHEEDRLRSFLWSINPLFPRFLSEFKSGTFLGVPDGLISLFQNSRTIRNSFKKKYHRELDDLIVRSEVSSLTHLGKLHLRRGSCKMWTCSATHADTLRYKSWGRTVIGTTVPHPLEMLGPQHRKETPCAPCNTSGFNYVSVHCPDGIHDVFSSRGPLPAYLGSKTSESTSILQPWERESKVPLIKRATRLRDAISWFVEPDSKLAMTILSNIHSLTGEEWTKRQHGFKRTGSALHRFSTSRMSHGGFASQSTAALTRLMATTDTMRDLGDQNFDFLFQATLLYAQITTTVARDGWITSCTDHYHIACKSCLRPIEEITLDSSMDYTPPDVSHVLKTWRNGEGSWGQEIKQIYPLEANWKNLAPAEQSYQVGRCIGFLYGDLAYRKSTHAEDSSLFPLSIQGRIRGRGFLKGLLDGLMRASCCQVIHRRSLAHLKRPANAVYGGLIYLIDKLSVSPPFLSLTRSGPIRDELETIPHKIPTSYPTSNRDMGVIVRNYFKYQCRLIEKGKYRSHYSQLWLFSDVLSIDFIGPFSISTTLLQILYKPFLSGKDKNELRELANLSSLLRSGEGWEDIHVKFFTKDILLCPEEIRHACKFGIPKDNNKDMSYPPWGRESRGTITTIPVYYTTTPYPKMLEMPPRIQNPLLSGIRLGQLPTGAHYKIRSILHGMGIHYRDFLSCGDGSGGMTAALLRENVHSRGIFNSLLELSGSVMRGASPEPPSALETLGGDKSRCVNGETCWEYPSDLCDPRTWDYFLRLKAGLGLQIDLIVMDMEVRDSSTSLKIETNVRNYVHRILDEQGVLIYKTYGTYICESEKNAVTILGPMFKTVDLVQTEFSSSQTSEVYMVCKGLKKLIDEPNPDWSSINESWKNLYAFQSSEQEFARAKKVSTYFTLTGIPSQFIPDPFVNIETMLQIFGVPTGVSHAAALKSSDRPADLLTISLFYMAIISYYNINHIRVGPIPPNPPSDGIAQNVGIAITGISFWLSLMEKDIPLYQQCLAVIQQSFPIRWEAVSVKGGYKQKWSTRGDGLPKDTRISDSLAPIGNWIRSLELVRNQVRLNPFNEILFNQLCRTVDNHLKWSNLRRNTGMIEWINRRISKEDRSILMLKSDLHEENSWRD
VSV RNP, sequence (P03523 whole entry, looked up): as above

On to `O=C(O)CN(CCN(CC(=O)O)CC(=O)O)CC(=O)O` [EDTA, reference compound], for which the “synthesis of LeRNA1–18 (pulse)” value in series [1] is given as “abolishes”.

A word on the IC50: it is the concentration that gives 50% inhibition. Turning to `NC(=O)c1ncn([C@@H]2O[C@H](CO)[C@@H](O)[C@H]2O)n1` [Ribavirin, reference compound], the CC50 in the series “in vitro [2]” is 86 ± 0.5 µM; in “in vitro [5]”, > 100 µM. The “Anti-HPIV-3 activity SI (CC50/IC50)” value with HPIV-3 [3] is on record as > 5. The IC50 in the series with CHPV [4] was > 100 µM; in the series with HPIV-3 [6], 21 µM; in the series with VSV [8] it was 15 ± 1 µM; in the series with VSV [10], > 100 µM. Further, in the series on CHPV [7], the “Anti-CHPV Activity SI (CC50/IC50)” value is <1. Moreover, in the series on HeLa cells [9], the “Cytotoxicity CC50” value was > 1 0 0 µM.

As a reminder, the inhibition is the change of the read-out against control, counted positive when it falls. For the compound `COc1ccc(C2CC(=O)Nc3cc(O)c(C)cc32)cc1Cn1cccn1` (stereo not shown) [VPI A], the CC50 in “in vitro [2]” and in the series “in vitro [5]” was > 100 µM each time. For the same compound, the “synthesis of LeRNA1–18 (pulse)” value in series [1] is “inhibits”. Besides, the inhibition at 1 µM in series [11] (1 µM) amounted to 77%; on VSV L protein (1 µM, read-out: inhibition of AC synthesis with the VSV L protein alone) it was 85%. The inhibition at 10 µM in series [11] (10 µM) worked out at 97%; on VSV L protein (10 µM, read-out: inhibition of AC synthesis with the VSV L protein alone), 100%. In addition, the “nuclear condensation and AcGFP expression in infected cells” value in the series with VSV-AcGFP [12] is “abrogate”. The “VSV-induced cell rounding and detachment” value in the series on VSV [13] is recorded as “inhibited”. The IC50 in the series with VSV [13] (read-out: Anti-VSV Activity IC50 (VSV-induced metabolic shut-down)) is 0.42 ± 0.02 µM; in the series on CHPV [4], 8 µM; on VSV RNP it was 0.81 ± 0.04 µM; at CHPV RNP it was 3.3 ± 0.4 µM; in the series with CHPV [7] (read-out: Anti-CHPV Activity IC50 (CHPV-induced metabolic shut-down)), 7.9 ± 0.4 µM; in the series with VSV [8], 0.4 µM. Also, the IC50 amounted to 26 µM in the series with RABV [18] and 2 ± 0.1 µM in the series with VSV [10]. For the same compound, in the series on HPIV-3 [3], the “antiviral effects against HPIV-3” value is “neither of the compounds showed any antiviral effects”. Moreover, at VSV RNP, the “VSV LeRNA synthesis” value is listed as “represses”. Also, the inhibition at 20 µM on VSV RNP was 99%. For the same compound, in the series on RABV [14], the “Anti-RABV activity SI (CC50/IC50)” value was > 4. Also, the “AC synthesis with the VSV L and P proteins” value at VSV L protein is recorded as “inhibit”. For the same compound, the “AC synthesis with the VSV L and P proteins (Figure S4)” value at VSV L protein (10 µM) is reported as “strongest”. In addition, the “step of VSV infection inhibited (time-of-addition)” value in the series on VSV-AcGFP [15] is “inhibits VSV infection at an early post-entry step”. Moreover, the “Anti-CHPV Activity SI (CC50/IC50)” value with CHPV [7] is listed as >13. Moreover, the “capping activity of the PRNTase domain in the VSV L protein” value in [16] is reported as “slightly reduced”. Further, the inhibition at 17 µM with VSV [17] turned out to be 98%; in the series with VSV [20], 105%. Besides, the “Cytotoxicity CC50” value in the series with HeLa cells [9] and with NA cells was > 1 0 0 µM each time. Besides, the “cytotoxic effects on BHK-21 cells” value in the series with BHK-21 cells was “little or no cytotoxic effects”. Moreover, the “concentration that almost completely abolished VSV production” value with VSV [19] is ≥ 12.5 µM. For the same compound, the “inhibition of in vitro mRNA synthesis of HPIV-3” value against HPIV-3 RNP was “not”. For the same compound, the “toxicity to HeLa cells” value in the series on HeLa cells [21] is “less toxic”.

Regarding `Cc1cc2c(cc1O)NC(=O)CC2c1cc(C(C)(C)C)[nH]n1` (stereo not shown) [VPI B], the CC50 in the series “in vitro [2]” and in the series “in vitro [5]” was > 100 µM throughout. Moreover, the “nuclear condensation and AcGFP expression in infected cells” value in the series with VSV-AcGFP [12] was “abrogate”. The “VSV-induced cell rounding and detachment” value with VSV [13] is “inhibited”. The “antiviral effects against HPIV-3” value in the series with HPIV-3 [3] is recorded as “neither of the compounds showed any antiviral effects”. Moreover, the IC50 with CHPV [4] stood at 11 ± 1 µM; in the series on VSV [8], 1 µM; with VSV [10] it was 6 µM. The inhibition at 20 µM at VSV RNP was 89%. In addition, the “inhibitory effect on RABV gene expression” value in the series on RABV [14] was “little or no inhibitory effect”. For the same compound, the “Anti-CHPV Activity SI (CC50/IC50)” value in the series on CHPV [7] was >9. For the same compound, the inhibition at 17 µM worked out at 92% in the series with VSV [17] and 102% in the series on VSV [20]. Moreover, the “Cytotoxicity CC50” value with HeLa cells [9] and with NA cells was > 1 0 0 µM throughout. In addition, in the series on BHK-21 cells, the “cytotoxic effects on BHK-21 cells” value is on record as “little or no cytotoxic effects”. The “concentration that almost completely abolished VSV production” value in the series with VSV [19] is given as ≥ 25 µM. The “toxicity to HeLa cells” value in the series on HeLa cells [21] is recorded as “less toxic”.

`Cc1cc2c(cc1O)NC(=O)CC2c1c[nH]nc1-c1ccc(F)cc1` (stereo not shown) [VPI C]: the inhibition at 20 µM at VSV RNP is 72%. Further, the inhibition at 17 µM stood at 63% in the series on VSV [17] and 58% with VSV [20].

With `Cc1cc2c(cc1O)NC(=O)CC2c1cc2ccccc2n1C` (stereo not shown) [VPI D], the inhibition at 20 µM at VSV RNP worked out at 72%. The inhibition at 17 µM in the series on VSV [17] worked out at 57%; with VSV [20], 55%.

Regarding `COc1cc2c(cc1C1CC(=O)Nc3cc(O)c(C)cc31)CCC2` (stereo not shown) [VPI E], the inhibition at 20 µM at VSV RNP was 72%. Moreover, the inhibition at 17 µM came to 94% in the series with VSV [17] and 50% with VSV [20].

Take `Cc1cc2c(cc1O)NC(=O)CC2c1ccc(-c2cc[nH]n2)o1` (stereo not shown) [VPI F]: the “effect on VSV mRNA synthesis, in words” value at VSV RNP (at 20 µM) is reported as “weak inhibitory effect”. In addition, on VSV RNP, the inhibition at 20 µM was 34%. Besides, at VSV L protein (10 µM), the “AC synthesis with the VSV L and P proteins (Figure S4)” value is reported as “weakest”. The values for the inhibition at 17 µM in the series on VSV [17] and with VSV [20] were 69% and 48%, respectively.

On to `Cc1cc2c(cc1O)NC(=O)CC2c1ccc(Oc2ccccc2)cc1` (stereo not shown) [VPI G], for which the inhibition at 20 µM at VSV RNP was 68%. In addition, the inhibition at 17 µM in the series with VSV [17] was 54%; in the series with VSV [20], 46%.

Turning to `COc1cc2c(cc1C1CC(=O)Nc3cc(O)c(C)cc31)OCCCO2` (stereo not shown) [VPI H], the inhibition at 20 µM at VSV RNP amounted to 73%. Moreover, the inhibition at 17 µM with VSV [17] was determined as 53%; in the series on VSV [20], 34%.
